C[C@]12CC[C@@H]3c4ccc(O)cc4CC[C@H]3[C@@H]1C[C@@H](O)[C@@H]2O
solubility (mole fraction)
Details	293.2 K	298.2 K	303.2 K	308.2 K	313.2 K	318.2 K	323.2 K	328.2 K
in 2-aminoethanol	0.0111	0.0127	0.0148	0.018	0.0214	0.0254	0.0314	0.0363
in DMF	0.00112	0.00158	0.00258	0.00426	0.00581	0.00958	0.013	0.018
in NMP	0.000415	0.000677	0.00105	0.00174	0.00275	0.00364	0.00491	0.00718
in morpholine-4-carbaldehyde	6.2e-05	0.00023	0.000652	0.00147	0.00343	0.00495	0.00726	0.0107
in n-dodecane	0.00072	0.000779	0.00092	0.000956	0.00128	0.00179	0.00243	0.00285
in n-hexadecane	0.00114	0.00147	0.00175	0.00219	0.00251	0.00299	0.00335	0.00382
in n-nonanol	0.0074	0.00863	0.0104	0.0116	0.0131	0.0147	0.0168	0.0199
in n-octane	0.000621	0.000735	0.000873	0.00103	0.00123	0.00138	0.00152	0.00186
in n-octanol	0.00593	0.00678	0.00747	0.00868	0.0104	0.0121	0.0147	0.0171
in n-pentanol	0.00243	0.00285	0.00367	0.00468	0.00594	0.00809	0.00967	0.0121
in sec-butanol	0.00189	0.0025	0.0032	0.00403	0.00453	0.00533	0.00668	0.00812
in water	0.000115	0.000135	0.000168	0.000191	0.000306	0.000422	0.000577	0.000803

C[C@@H]1CC[C@@]2(OC1)O[C@H]1C[C@H]3[C@@H]4CC=C5C[C@@H](O)CC[C@]5(C)[C@H]4CC[C@]3(C)[C@H]1[C@@H]2C
solubility (mole fraction)
Details	293.2 K	298.2 K	303.2 K	308.2 K	313.2 K	318.2 K	323.2 K	328.2 K
in 2-aminoethanol	0.00142	0.00218	0.0042	0.00625	0.00807	0.00914	0.011	0.0132
in DMF	0.00113	0.00159	0.00232	0.00369	0.00461	0.00587	0.00794	0.0116
in NMP	0.0118	0.0128	0.0138	0.0148	0.0163	0.0178	0.0196	0.0219
in acetonitrile	0.00359	0.00529	0.00675	0.00894	0.0125	0.0151	0.0188	0.0221
in morpholine-4-carbaldehyde	0.00663	0.00809	0.00976	0.012	0.0147	0.0162	0.0181	0.0198
in n-dodecane	0.000266	0.000351	0.000439	0.000542	0.000631	0.000743	0.000898	0.00105
in n-hexadecane	0.000256	0.000373	0.000465	0.000626	0.000949	0.00131	0.00171	0.00244
in n-nonanol	0.0067	0.00825	0.00965	0.011	0.0123	0.0132	0.0145	0.0155
in n-octane	8.1e-05	0.00013	0.00016	0.00021	0.000302	0.000466	0.00068	0.000915
in n-octanol	0.00348	0.00423	0.00516	0.0066	0.00842	0.00947	0.0104	0.0116
in sec-butanol	0.000128	0.000229	0.000436	0.000784	0.00119	0.0017	0.00253	0.00366

From BigSolDB 2.1
